Reference: ChEMBL document CHEMBL2434896, “Carbonic anhydrase inhibitors. Synthesis of heterocyclic 4-substituted pyridine-3-sulfonamide derivatives and their inhibition of the human cytosolic isozymes I and II and transmembrane tumor-associated isozymes IX and XII” (Eur J Med Chem, 2013)
Activity calls are given as the source filed them.

Tests used:
[1] = test system: SF-539; test: Growth inhibition of human SF539 cells at 10 uM after 48 hrs by sulforhodamine B assay; assay type: functional; details: SF-539, 48 h, read-out: GI
[2] = test system: IGROV-1; test: Growth inhibition of human IGROV1 cells at 10 uM after 48 hrs by sulforhodamine B assay; assay type: functional
[3] = test system: RXF 393; test: Growth inhibition of human RXF393 cells at 10 uM after 48 hrs by sulforhodamine B assay; assay type: functional
[4] = test system: CAKI-1; test: Growth inhibition of human CAKI-1 cells at 10 uM after 48 hrs by sulforhodamine B assay; assay type: functional
[5] = test system: PC-3; test: Growth inhibition of human PC3 cells at 10 uM after 48 hrs by sulforhodamine B assay; assay type: functional; details: PC-3, 48 h, read-out: GI
[6] = test system: T47D; test: Growth inhibition of human T47D cells at 10 uM after 48 hrs by sulforhodamine B assay; assay type: functional; details: read-out: GI
[7] = test system: UACC-62; test: Growth inhibition of human UACC62 cells at 10 uM after 48 hrs by sulforhodamine B assay; assay type: functional; details: UACC-62, 48 h, read-out: GI
[8] = test system: SR; test: Growth inhibition of human SR cells at 10 uM after 48 hrs by sulforhodamine B assay; assay type: functional; details: read-out: GI
[9] = test system: SF-268; test: Growth inhibition of human SF268 cells at 10 uM after 48 hrs by sulforhodamine B assay; assay type: functional
[10] = test system: NCI-H322M; test: Growth inhibition of human NCI-H322M cells at 10 uM after 48 hrs by sulforhodamine B assay; assay type: functional
[11] = test system: SK-MEL-2; test: Growth inhibition of human SK-MEL-2 cells at 10 uM after 48 hrs by sulforhodamine B assay; assay type: functional; details: SK-MEL-2, 48 h, read-out: GI
[12] = test system: SF-295; test: Growth inhibition of human SF295 cells at 10 uM after 48 hrs by sulforhodamine B assay; assay type: functional; details: SF-295, 48 h, read-out: GI
[13] = test system: NCI/ADR-RES; test: Growth inhibition of human NCI-ADR-RES cells at 10 uM after 48 hrs by sulforhodamine B assay; assay type: functional
[14] = test system: MDA-MB-435; test: Growth inhibition of human MDA-MB-435 cells at 10 uM after 48 hrs by sulforhodamine B assay; assay type: functional; details: MDA-MB-435, 48 h, read-out: GI
[15] = test system: SK-OV-3; test: Growth inhibition of human SKOV3 cells at 10 uM after 48 hrs by sulforhodamine B assay; assay type: functional
[16] = test system: HCC 2998; test: Growth inhibition of human HCC2998 cells at 10 uM after 48 hrs by sulforhodamine B assay; assay type: functional
[17] = test system: UO-31; test: Growth inhibition of human UO31 cells at 10 uM after 48 hrs by sulforhodamine B assay; assay type: functional; details: UO-31, 48 h, read-out: GI
[18] = test system: HCT-116; test: Growth inhibition of human HCT116 cells at 10 uM after 48 hrs by sulforhodamine B assay; assay type: functional
[19] = test system: LOX IMVI; test: Growth inhibition of human LOXIMVI cells at 10 uM after 48 hrs by sulforhodamine B assay; assay type: functional; details: read-out: GI
[20] = test system: M14; test: Growth inhibition of human M14 cells at 10 uM after 48 hrs by sulforhodamine B assay; assay type: functional
[21] = test system: SK-MEL-5; test: Growth inhibition of human SK-MEL-5 cells at 10 uM after 48 hrs by sulforhodamine B assay; assay type: functional
[22] = test system: OVCAR-5; test: Growth inhibition of human OVCAR5 cells at 10 uM after 48 hrs by sulforhodamine B assay; assay type: functional; details: OVCAR-5, 48 h, read-out: GI
[23] = test system: RPMI-8226; test: Growth inhibition of human RPMI8226 cells at 10 uM after 48 hrs by sulforhodamine B assay; assay type: functional; details: RPMI-8226, 48 h, read-out: GI
[24] = test system: BT-549; test: Growth inhibition of human BT549 cells at 10 uM after 48 hrs by sulforhodamine B assay; assay type: functional
[25] = test system: ACHN; test: Growth inhibition of human ACHN cells at 10 uM after 48 hrs by sulforhodamine B assay; assay type: functional
[26] = test system: DU-145; test: Growth inhibition of human DU145 cells at 10 uM after 48 hrs by sulforhodamine B assay; assay type: functional
[27] = test system: NCI-H460; test: Growth inhibition of human NCI-H460 cells at 10 uM after 48 hrs by sulforhodamine B assay; assay type: functional
[28] = test system: SK-MEL-28; test: Growth inhibition of human SK-MEL-28 cells at 10 uM after 48 hrs by sulforhodamine B assay; assay type: functional, cell-based
[29] = test system: HOP-62; test: Growth inhibition of human HOP62 cells at 10 uM after 48 hrs by sulforhodamine B assay; assay type: functional; details: HOP-62, 48 h, read-out: GI
[30] = test system: MOLT-4; test: Growth inhibition of human MOLT4 cells at 10 uM after 48 hrs by sulforhodamine B assay; assay type: functional; details: MOLT-4, 48 h, read-out: GI
[31] = test system: K562; test: Growth inhibition of human K562 cells at 10 uM after 48 hrs by sulforhodamine B assay; assay type: functional; details: K562, 48 h, read-out: GI
[32] = test system: U-251; test: Growth inhibition of human U251 cells at 10 uM after 48 hrs by sulforhodamine B assay; assay type: functional; details: U-251, 48 h, read-out: GI
[33] = test system: HCT-15; test: Growth inhibition of human HCT15 cells at 10 uM after 48 hrs by sulforhodamine B assay; assay type: functional
[34] = test system: KM12; test: Growth inhibition of human KM12 cells at 10 uM after 48 hrs by sulforhodamine B assay; assay type: functional
[35] = test system: OVCAR-3; test: Growth inhibition of human OVCAR3 cells at 10 uM after 48 hrs by sulforhodamine B assay; assay type: functional
[36] = test system: MDA-MB-231; test: Growth inhibition of human MDA-MB-231 cells at 10 uM after 48 hrs by sulforhodamine B assay; assay type: functional
[37] = target: Carbonic anhydrase 9 (Homo sapiens, UniProt Q16790); test: Inhibition of human carbonic anhydrase 9 after 15 mins by stopped flow CO2 hydration assay
[38] = test system: MDA-MB-468; test: Growth inhibition of human MDA-MB-468 cells at 10 uM after 48 hrs by sulforhodamine B assay; assay type: functional; details: MDA-MB-468, 48 h, read-out: GI
[39] = test system: OVCAR-4; test: Growth inhibition of human OVCAR4 cells at 10 uM after 48 hrs by sulforhodamine B assay; assay type: functional; details: OVCAR-4, 48 h, read-out: GI
[40] = test system: NCI-H522; test: Growth inhibition of human NCI-H522 cells at 10 uM after 48 hrs by sulforhodamine B assay; assay type: functional
[41] = test system: Hs-578T; test: Growth inhibition of human Hs 578T cells at 10 uM after 48 hrs by sulforhodamine B assay; assay type: functional
[42] = test system: CCRF-CEM; test: Growth inhibition of human CCRF-CEM cells at 10 uM after 48 hrs by sulforhodamine B assay; assay type: functional; details: read-out: GI
[43] = test system: COLO 205; test: Growth inhibition of human COLO205 cells at 10 uM after 48 hrs by sulforhodamine B assay; assay type: functional

COc1ccccc1N1CCN(c2ccncc2S(N)(=O)=O)CC1
7%: inhibition of growth at 10 µM [42]
9%: inhibition of growth at 10 µM [31]
652 nM: Ki [37]
5%: inhibition of growth at 10 µM [1] | inhibition of growth at 10 µM [11]
10%: inhibition of growth at 10 µM [5] | inhibition of growth at 10 µM [17]
2%: inhibition of growth at 10 µM [6] | inhibition of growth at 10 µM [14] | inhibition of growth at 10 µM [19] | inhibition of growth at 10 µM [22] | inhibition of growth at 10 µM [29] | inhibition of growth at 10 µM [38] | inhibition of growth at 10 µM [39]
3%: inhibition of growth at 10 µM [7] | inhibition of growth at 10 µM [12] | inhibition of growth at 10 µM [23]
17%: inhibition of growth at 10 µM [8]
inactive: growth inhibition (GI) [2] | growth inhibition (GI) [3] | growth inhibition (GI) [4] | growth inhibition (GI) [9] | growth inhibition (GI) [10] | growth inhibition (GI) [13] | growth inhibition (GI) [15] | growth inhibition (GI) [16] | growth inhibition (GI) [18] | growth inhibition (GI) [20] | growth inhibition (GI) [21] | growth inhibition (GI) [24] | growth inhibition (GI) [25] | growth inhibition (GI) [26] | growth inhibition (GI) [27] | growth inhibition (GI) [28] | growth inhibition (GI) [33] | growth inhibition (GI) [34] | growth inhibition (GI) [35] | growth inhibition (GI) [36] | growth inhibition (GI) [40] | growth inhibition (GI) [41] | growth inhibition (GI) [43]
1%: inhibition of growth at 10 µM [32]
20%: inhibition of growth at 10 µM [30]
